Results on 1 molecule are retold here after doi:10.64898/2025.12.11.693838v1 (biorxiv, 2025).

The assay concerns the target T1, SaTpx (WT-SaTpx) (Staphylococcus aureus, UniProt Q2FXL3).
T1 sequence (Q2FXL3 1-164): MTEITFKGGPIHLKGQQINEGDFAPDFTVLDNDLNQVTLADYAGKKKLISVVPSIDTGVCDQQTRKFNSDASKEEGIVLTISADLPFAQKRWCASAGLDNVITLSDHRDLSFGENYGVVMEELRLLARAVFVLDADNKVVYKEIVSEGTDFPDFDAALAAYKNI
Description: coupled SaTrx1/SaTR NADPH oxidation assay at […] nm, Michaelis-Menten fit. The assay is classed as biochemical. Conditions: apparent; NADPH 0.2 mM; 20 mM Tris, 50 mM NaCl, pH 8.0.

Regarding `CC(C)(OO)c1ccccc1` [cumene hydroperoxide], the Km (in general, the concentration of substrate that gives half-maximal velocity) worked out at 8.5 µM.
